This is an account of results in ChEMBL document CHEMBL5537153, “Modifications to 1-(4-(2-Bis(4-fluorophenyl)methyl)sulfinyl)alkyl Alicyclic Amines That Improve Metabolic Stability and Retain an Atypical DAT Inhibitor Profile” (J Med Chem, 2024).

In data set [1] the target is Sodium-dependent serotonin transporter (Rattus norvegicus, UniProt P31652). The experiment in a line: Displacement of [3H]citalopram from SERT in Sprague-Dawley rat brainstem incubated for 60 mins by scintillation counting analysis. The data set is classed as tissue-based. A general note: Displacement assays read how much labelled ligand stays bound in the presence of the test substance.
Chain of Sodium-dependent serotonin transporter (P31652 whole entry): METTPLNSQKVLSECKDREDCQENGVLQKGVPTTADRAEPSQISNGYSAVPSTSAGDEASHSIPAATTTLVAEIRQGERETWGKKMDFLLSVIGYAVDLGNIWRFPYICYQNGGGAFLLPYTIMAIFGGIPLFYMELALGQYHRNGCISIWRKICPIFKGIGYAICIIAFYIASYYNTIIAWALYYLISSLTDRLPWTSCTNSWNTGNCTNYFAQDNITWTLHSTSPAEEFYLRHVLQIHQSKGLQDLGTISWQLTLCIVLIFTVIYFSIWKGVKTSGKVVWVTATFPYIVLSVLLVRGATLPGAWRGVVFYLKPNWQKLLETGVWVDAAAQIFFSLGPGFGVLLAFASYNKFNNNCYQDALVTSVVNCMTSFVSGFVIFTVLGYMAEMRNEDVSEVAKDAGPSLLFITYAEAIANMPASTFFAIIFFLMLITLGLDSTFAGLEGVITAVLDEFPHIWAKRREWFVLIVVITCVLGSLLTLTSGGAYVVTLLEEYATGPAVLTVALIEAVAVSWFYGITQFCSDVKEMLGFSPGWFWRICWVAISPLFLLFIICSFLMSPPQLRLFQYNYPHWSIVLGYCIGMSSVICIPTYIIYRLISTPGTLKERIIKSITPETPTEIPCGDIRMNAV

The target of data set [2] is Sodium-dependent dopamine transporter (Rattus norvegicus, UniProt P23977). Description: Displacement of [3H]WIN35428 from DAT in Sprague-Dawley rat striatum incubated for 120 mins by scintillation counting analysis. The data set is classed as tissue-based.
Chain of Sodium-dependent dopamine transporter (Rattus norvegicus, UniProt P23977) (P23977 whole entry): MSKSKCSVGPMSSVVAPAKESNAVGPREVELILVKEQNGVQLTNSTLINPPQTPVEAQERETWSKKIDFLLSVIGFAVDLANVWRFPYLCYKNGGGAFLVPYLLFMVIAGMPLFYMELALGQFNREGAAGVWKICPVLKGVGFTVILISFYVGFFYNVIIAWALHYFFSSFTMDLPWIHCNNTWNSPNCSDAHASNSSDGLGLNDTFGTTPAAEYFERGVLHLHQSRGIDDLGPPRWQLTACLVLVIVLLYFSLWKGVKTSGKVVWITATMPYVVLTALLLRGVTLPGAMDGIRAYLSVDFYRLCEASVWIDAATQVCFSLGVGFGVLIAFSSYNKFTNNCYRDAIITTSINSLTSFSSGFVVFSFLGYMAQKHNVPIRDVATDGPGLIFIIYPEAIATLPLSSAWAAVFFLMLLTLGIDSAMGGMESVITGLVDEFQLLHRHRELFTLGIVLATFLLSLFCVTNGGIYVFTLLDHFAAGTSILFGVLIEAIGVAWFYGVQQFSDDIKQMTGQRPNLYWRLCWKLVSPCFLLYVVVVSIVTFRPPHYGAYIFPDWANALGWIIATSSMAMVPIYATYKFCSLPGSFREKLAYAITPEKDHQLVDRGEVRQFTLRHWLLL
The species entered for a further data set is Rattus norvegicus. Description: Selectivity ratio of Ki for SERT in Sprague-Dawley rat brainstem to Ki for DAT in Sprague-Dawley rat striatum.
Data set [3] in a line: Metabolic stability of the compound in mouse liver microsomes assessed as parent compound remaining at 10 uM measured after 60 mins in presence of NADPH regenerating system by LC/MS analysis. Particulars: read-out: Stability. The data set is classed as ADME, Microsome. Background: Liver microsomes are vesicles of endoplasmic reticulum, rich in cytochrome P450 enzymes.
Data set [4] in a line: Inhibition of [3H]dopamine uptake from human DAT Y335A mutant expressed in COS-7 cells preincubated for 30 mins followed by [3H]dopamine addition and measured after 10 mins by beta scintillation counting analysis. The data set is classed as cell-based.
Data set [5] concerns the target T1, Sodium-dependent dopamine transporter (Homo sapiens, UniProt Q01959). Description: Displacement of [3H]WIN35428 from wild type human DAT expressed in COS-7 cells incubated for 1.5 hrs by scintillation counting analysis. The data set is classed as cell-based.
Data set [6] deals with T1, Sodium-dependent dopamine transporter. Description: Inhibition of [3H]dopamine uptake from wild type human DAT expressed in COS-7 cells preincubated for 30 mins followed by [3H]dopamine addition and measured after 5 mins by beta scintillation counting analysis. The data set is classed as cell-based.
The nature of data set [7]: Displacement of [3H]WIN35428 from human DAT Y156F mutant expessed in COS-7 cells incubated for 1.5 hrs by beta scintillation counting analysis. The data set is classed as cell-based.
The nature of data set [8]: Displacement of [3H]nisoxetine from NET in Sprague-Dawley rat prefrontal cortex incubated for 180 mins by microbeta microscintillation counting analysis. The data set is classed as tissue-based.
Data set [9] can be described thus: Induction of behavioural effects in wild type C57BL/6J mouse assessed as locomotor activity at 3 to 30 mg/kg, ip measured every 10 mins for 3 hrs by open field test. In kind it is toxicity, organism-based. Particulars: in vivo, dose 3-30 mg/kg.
The nature of data set [10]: Metabolic stability of the compound in rat liver microsomes assessed as parent compound remaining at 10 uM measured after 60 mins in presence of NADPH regenerating system by LC/MS analysis. In kind it is ADME, Microsome. Particulars: for Stability: microsomes, 1 h, 10 µM.
The nature of data set [11]: Induction of behavioural effects in wild type C57BL/6J mouse assessed as increase in locomotor activity at 30 mg/kg, ip measured after 20 mins by open field test. The data set is classed as toxicity, organism-based. Particulars: in vivo.

SMILES strings stand for the structures.

T1 sequence (Q01959 whole entry): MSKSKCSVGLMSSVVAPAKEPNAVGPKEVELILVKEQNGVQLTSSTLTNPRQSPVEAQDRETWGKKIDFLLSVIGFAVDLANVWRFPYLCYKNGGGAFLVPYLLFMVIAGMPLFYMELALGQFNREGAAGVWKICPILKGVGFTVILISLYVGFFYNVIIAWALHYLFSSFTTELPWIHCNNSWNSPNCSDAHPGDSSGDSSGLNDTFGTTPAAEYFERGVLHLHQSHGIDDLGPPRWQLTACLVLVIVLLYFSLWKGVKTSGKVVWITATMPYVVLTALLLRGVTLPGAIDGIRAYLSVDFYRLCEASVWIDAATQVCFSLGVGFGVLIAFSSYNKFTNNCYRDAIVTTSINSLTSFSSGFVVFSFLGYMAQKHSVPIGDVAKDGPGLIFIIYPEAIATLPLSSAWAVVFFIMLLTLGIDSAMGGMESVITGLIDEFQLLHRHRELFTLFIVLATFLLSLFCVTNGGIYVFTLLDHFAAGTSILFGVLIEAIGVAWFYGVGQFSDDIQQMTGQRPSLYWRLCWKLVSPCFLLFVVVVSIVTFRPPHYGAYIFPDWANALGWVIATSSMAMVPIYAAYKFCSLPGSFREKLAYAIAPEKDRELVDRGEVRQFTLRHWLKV

For `[O-][S+](CCN1CCN(c2ncccn2)CC1)C(c1ccc(F)cc1)c1ccc(F)cc1` (configuration not stated), the results for the Ki in data set [1] and in data set [2] were 46300 nM and 22100 nM, respectively. Moreover, in the data set listed under Rattus norvegicus, the Ratio Ki was 2.

Regarding `Fc1ccc(C(SCCN2CCN(c3ncccn3)CC2)c2ccc(F)cc2)cc1`, the results for the Ki in [1] and in data set [2] were 923 nM and 725 nM, respectively. Also, the Ratio Ki in the data set filed under Rattus norvegicus came out at 1.

For `OC(Cc1ccc(F)cc1)CN1CCCN(CCSC(c2ccc(F)cc2)c2ccc(F)cc2)CC1` (configuration not stated), the Ki in data set [1] turned out to be 504 nM; in data set [2], 14.3 nM. Also, the Ratio Ki in the data set listed under Rattus norvegicus came to 35.

With `C[C@@H](O)CN1CCC(CCSC(c2ccc(F)cc2)c2ccc(F)cc2)CC1`, the Ki was determined as 759 nM in data set [1] and 84.5 nM in data set [2]. In addition, the Ratio Ki in the data set listed under Rattus norvegicus came out at 9.

Take `COc1ccc(CC(O)CN2CCCN(CC[S+]([O-])C(c3ccc(F)cc3)c3ccc(F)cc3)CC2)cc1` (configuration not stated): the remaining at 1 h, 10 µM in [3] amounted to 20%. The values for the Ki in [1] and in data set [2] were 2670 nM and 33.4 nM, respectively. Further, the Ratio Ki in the data set listed under Rattus norvegicus was 80.

Regarding `OC(Cc1ccccc1)CN1CCC(CCSC(c2ccc(F)cc2)c2ccc(F)cc2)CC1` (configuration not stated), the values for the Ki in data set [1] and in data set [2] were 201 nM and 5.83 nM, respectively. Moreover, the Ratio Ki in the data set filed under Rattus norvegicus was 34.

In the case of `CC(O)CN1CCCN(CCSC(c2ccc(F)cc2)c2ccc(F)cc2)CC1` (configuration not stated), the remaining at 1 h, 10 µM in data set [3] worked out at 12%. Moreover, the Ki in [4] was 3300 nM; in data set [1] it was 2430 nM; in data set [2], 63.4 nM; in data set [5], 80 nM; in [6] it was 163 nM; in [7], 232 nM. In addition, the Ratio Ki in the data set filed under Rattus norvegicus amounted to 38.

Regarding `[O-][S+](CCN1CCCN(c2ncccn2)CC1)C(c1ccc(F)cc1)c1ccc(F)cc1` (configuration not stated), the Ki in [1] was 28000 nM; in data set [2], 24800 nM. In addition, the Ratio Ki in the data set filed under Rattus norvegicus worked out at 1.

As for `Fc1ccc(C(SCCN2CCN(c3ccncc3)CC2)c2ccc(F)cc2)cc1`, the inhibition constant (Ki) in data set [4] came out at 4050 nM; in data set [1], 136 nM; in data set [2] it was 91.6 nM; in data set [5], 106 nM; in data set [6], 326 nM; in [7], 393 nM. In the data set filed under Rattus norvegicus, the Ratio Ki is 1.

With `COc1ccc(N2CCN(CC[S+]([O-])C(c3ccc(F)cc3)c3ccc(F)cc3)CC2)cc1` (configuration not stated), the results for the Ki in data set [1] and in data set [2] were 18100 nM and 6300 nM, respectively. In addition, in the data set listed under Rattus norvegicus, the Ratio Ki came out at 3.

Consider `[O-][S+](CCN1CCCN(CC(O)Cc2ccc(F)cc2)CC1)C(c1ccc(F)cc1)c1ccc(F)cc1` (configuration not stated), for which the remaining at 1 h, 10 µM in data set [3] was determined as 15%. Moreover, the Ki amounted to 2150 nM in data set [1] and 6.81 nM in data set [2]. Also, in the data set listed under Rattus norvegicus, the Ratio Ki was found to be 316.

Turning to `C[C@H](O)CN1CCC(CCSC(c2ccc(F)cc2)c2ccc(F)cc2)CC1`, the inhibition constant (Ki) amounted to 1200 nM in data set [1] and 34.5 nM in data set [2]. Besides, the Ratio Ki in the data set filed under Rattus norvegicus amounted to 35.

With `COc1ccc(N2CCN(CCSC(c3ccc(F)cc3)c3ccc(F)cc3)CC2)cc1`, the Ki is 780 nM in [1] and 662 nM in data set [2]. The Ratio Ki in the data set listed under Rattus norvegicus worked out at 1.

For the compound `CC(O)CN1CCN(CCSC(c2ccc(F)cc2)c2ccc(F)cc2)CC1` (configuration not stated), the remaining at 1 h, 10 µM in [3] was 6%.

Take `CC(O)CN1CCC(CC[S+]([O-])C(c2ccc(F)cc2)c2ccc(F)cc2)CC1` (configuration not stated): the Ki was greater than 100000 nM in [8]; 16100 nM in data set [1]; 180 nM in data set [2]; 355 nM in [5]; 949 nM in [6]; 2360 nM in data set [7]. Further, in data set [9], the Activity result is “Non-Toxic”. The Stability in data set [10] came to 100%. Besides, the Ratio Ki in the data set filed under Rattus norvegicus was 89.

As for `CC(O)CN1CCC(CCSC(c2ccc(F)cc2)c2ccc(F)cc2)CC1` (configuration not stated), the figures for the Ki in [1] and in [2] were 1920 nM and 67 nM, respectively. In the data set filed under Rattus norvegicus, the Ratio Ki was 29.

For the compound `C[C@H](O)CN1CCC(CC[S+]([O-])C(c2ccc(F)cc2)c2ccc(F)cc2)CC1` (some centres not stated), the Ki is 14300 nM in data set [1] and 382 nM in data set [2]. The Ratio Ki in the data set filed under Rattus norvegicus is 37.

`[O-][S+](CCC1CCN(CC(O)Cc2ccccc2)CC1)C(c1ccc(F)cc1)c1ccc(F)cc1` (configuration not stated): the Ki in [1] amounted to 818 nM; in data set [2] it was 2.64 nM. In addition, the Stability in [10] amounted to 68%. Moreover, the Ratio Ki in the data set listed under Rattus norvegicus was found to be 310.

On to `CC(O)CN1CCCN(CC[S+]([O-])C(c2ccc(F)cc2)c2ccc(F)cc2)CC1` (configuration not stated), for which the values for the Ki in data set [1] and in [2] were 26000 nM and 417 nM, respectively. The Ratio Ki in the data set filed under Rattus norvegicus was determined as 62.

Consider `[O-][S+](CCN1CCN(c2ccncc2)CC1)C(c1ccc(F)cc1)c1ccc(F)cc1` (configuration not stated), for which the results for the Ki in data set [1] and in [2] were 3460 nM and 2480 nM, respectively. Further, in the data set filed under Rattus norvegicus, the Ratio Ki stood at 1.

On to `[O-][S+](CCN1CCCN(CC(O)Cc2ccccc2)CC1)C(c1ccc(F)cc1)c1ccc(F)cc1` (configuration not stated), for which the remaining at 1 h, 10 µM in data set [3] worked out at 0%. Further, the Ki in data set [8] was found to be 4040 nM; in data set [4], 1440 nM; in data set [1], 3520 nM; in [2], 8.37 nM; in data set [5], 32 nM; in [6], 40 nM. The Ki in data set [7] stood at 184 nM. Also, the Activity entry in data set [9] is reported as “Non-Toxic”. Also, the Ratio Ki in the data set listed under Rattus norvegicus came to 421.

`OC(Cc1ccccc1)CN1CCCN(CCSC(c2ccc(F)cc2)c2ccc(F)cc2)CC1` (configuration not stated): the Ki was 288 nM in data set [1] and 7.23 nM in data set [2]. Further, the Ratio Ki in the data set listed under Rattus norvegicus was 40.

On to `CC(F)CN1[C@H](C)CN(CC[S+]([O-])C(c2ccc(F)cc2)c2ccc(F)cc2)C[C@@H]1C` (some centres not stated), for which the Ki was greater than 100000 nM in [1] and 1050 nM in data set [2]. The Ratio Ki in the data set filed under Rattus norvegicus was greater than 95.

Turning to `CC(O)CN1CCN(CC[S+]([O-])C(c2ccc(F)cc2)c2ccc(F)cc2)CC1` (configuration not stated), the Ki in data set [4] came to 14400 nM; in data set [5], 1020 nM; in [6], 917 nM; in data set [7], 7560 nM. The Activity result in [9] is reported as “Non-Toxic”. Also, the remaining at 1 h, 10 µM in [10] (liver microsomes, read-out: Stability) turned out to be 72%.

Turning to `[O-][S+](CCN1CCN(CC(O)Cc2ccccc2)CC1)C(c1ccc(F)cc1)c1ccc(F)cc1` (configuration not stated), the remaining at 1 h, 10 µM in data set [3] came out at 34%. Moreover, the Ki in data set [4] worked out at 537 nM; in data set [5], 10.7 nM; in [6], 0.806 nM; in data set [7], 116 nM. In addition, the Activity result in data set [11] is reported as “Toxic”.

As for `CC(O)CN1C(C)CN(CCSC(c2ccc(F)cc2)c2ccc(F)cc2)CC1C` (configuration not stated), the remaining at 1 h, 10 µM in data set [3] amounted to 68%.

For `C[C@@H](O)CN1CCC(CC[S+]([O-])C(c2ccc(F)cc2)c2ccc(F)cc2)CC1` (some centres not stated), the Ki in [1] came out at 34800 nM; in data set [2], 276 nM. In addition, the Ratio Ki in the data set filed under Rattus norvegicus worked out at 126.

Take `Fc1ccc(C(SCCN2CCCN(c3ncccn3)CC2)c2ccc(F)cc2)cc1`: the Ki in data set [1] was determined as 732 nM; in [2] it was 508 nM. Besides, the Ratio Ki in the data set filed under Rattus norvegicus turned out to be 1.

For the compound `CC(F)CN1[C@H](C)CN(CCSC(c2ccc(F)cc2)c2ccc(F)cc2)C[C@@H]1C` (some centres not stated), the Ki in data set [1] is 13400 nM; in data set [2], 135 nM. Besides, in the data set listed under Rattus norvegicus, the Ratio Ki was determined as 99.

On to `COc1ccc(CC(O)CN2CCCN(CCSC(c3ccc(F)cc3)c3ccc(F)cc3)CC2)cc1` (configuration not stated), for which the inhibition constant (Ki) in data set [1] was found to be 360 nM; in data set [2], 16.5 nM. Also, the Ratio Ki in the data set listed under Rattus norvegicus was 22.

In general, Ki refers to the equilibrium dissociation constant of an inhibitor or competing ligand from its target. Low values mean higher affinity, high ones lower affinity.
